Test results: patent US8263757B2, “Promiscuous HER-2/Neu CD4 T cell epitopes” (Dendreon Corporation, priority 2006, dated 2012)

Assays:
[1] = tested on: T cell clone HER500.23c21; assay: Epitope mapping of clone HER500.23c21 with individual HER500 15-mer peptides and autologous EBV-LcL (IFNγ ELISA, IL-2 by HT-2 proliferation); format: cell-based, human; conditions: each peptide 1 ug/ml; autologous EBV LCL cells as antigen presenting cells
Experimental: FIG. 2. T cell clone HER500.23.21 is specific for Peptide #63 (HERp270-284). The HER-2/neu epitope was mapped for clone HER500.23.21 and specificity was determined using autologous EBV-LcLs and each individual HER500 peptide #1-125 (15 amino acids in length). The assay was set up in 96 well round bottom plates with autologous EBV-LcLs at 2×10^5 cells/well and the T cell clone HER500.23.21 added at 1×10^5 cells/well. Each peptide was used at a final concentration of 1 ug/mL. The assay was incubated at 37° C. with 5% CO2 for 48 hours at which time supernatant was removed to test for cytokine production. (A) IFNγ production by clone HER500.23.21 was measured using ELISA, calculated pg/mL is shown for each HER500 peptide. (B) IL-2 production was measured using HT-2 cell proliferation.
Identification and Characterization of HER-2/neu specific T cell clones. […]
Cytokine Production. […] IL-2 production was measured using the IL-2 dependent line HT-2 (ATCC). […] TdR was added for the final 6 hours of the assay and plates were harvested to glass fiber filter mats and DNA incorporation of the radioisotope, or proliferative response, was determined by counts per minute using a liquid scintillation counter (PerkinElmer Life and Analytical Sciences, Inc. Boston, Mass.). IFNγ production was measured using anti-human IFNγ antibody pairs for ELISA (BD Pharmingen, San Diego, Calif.). […]

[2] = tested on: T cell clone HER500.23c21; assay: HLA-DR promiscuity: HERp270-284 presented by EBV-LcL lines homozygous for HLA-DRB1* alleles to HER500.23c21 (IFNγ ELISA); format: cell-based, human
Experimental: FIG. 4. HERp270-284 is a promiscuous MHC Class II HER-2/Neu epitope. (A) EBV-LcL lines homozygous for various HLA-DR alleles were tested for their ability to present HERp270-284 to clone HER500.23c21. Antigen-specific IFNγ production by HER500.23c21 was above the upper detection limit of the IFNγ ELISA (4000 pg/mL) with all EBV-LcL lines. […] The assay was set up in 96 well round bottom plates in cRPMI+10% FBS with 2×10^5 EBV-LcL/well and 1×10^5 HER500.23c21 cells/well. Peptides were used at a final concentration of 1 μg/mL. The assay was incubated for 48 hours at 37° C. with 5% CO2. Supernatants were harvested, frozen at −20° C. and then analyzed for IFNγ by ELISA. Results are shown for one representative experiment. (B) HERp270-284 was titrated with each EBV LcL line to determine the sensitivity of HER500.23c21 to different alleles. The assay was set up as in (A) except HERp270-284 concentrations are: 10 ng/mL, 33 ng/mL, 66 ng/mL, 100 ng/mL and 250 ng/mL. […] Results are shown for one representative experiment.
Cytokine Production. To determine cytokine production in the antigen specific stimulation assays, after 48 hours, 200 μL of supernatant was pulled from cultures and tested for both IL-2 and IFNγ production. IL-2 production was measured using the IL-2 dependent line HT-2 (ATCC). HT-2 cells were grown in IMDM with 10% FBS and 100 uM NEAA, 1 mM Sodium Pyruvate, 2 mM L-glutamine, […], 50 U/mL Streptomycin, 20 mM HEPES and 20 uM 2-Mercaptoethanol (cIMDM+10% FBS) and fed twice a week with 20 ng/mL rIL-2. For the assay, 4 days after HT-2 cells were split, cells were washed with IMDM+10% FBS to remove all rIL-2, and cells were added to 96 well round bottom plates at 1×10^4 cells/well in cIMDM+10% FBS. Supernatants from antigen specific stimulation were added to wells and plates were incubated 24-30 hours at 37° C. The following day 1 μCi of ^3[H] TdR was added for the final 6 hours of the assay and plates were harvested to glass fiber filter mats and DNA incorporation of the radioisotope, or proliferative response, was determined by counts per minute using a liquid scintillation counter (PerkinElmer Life and Analytical Sciences, Inc. Boston, Mass.). IFNγ production was measured using anti-human IFNγ antibody pairs for ELISA (BD Pharmingen, San Diego, Calif.). Briefly, Immulon 4 plates (Thermo Labsystems/VWR, Brisbane, Calif.) were coated overnight with purified anti-human IFNγ antibody (NIB42) at 3 μg/mL. The next day coating antibody was discarded and 4% Bovine Serum Albumin (BSA) (Sigma, St. Louis, Mo.) in PBS (Invitrogen) was added to wells and plates were incubated for 2 hours at 37° C. Plates were washed with PBS+0.05% Tween 20 and 100 μL of supernatant samples from the antigen specific stimulation was added to wells and incubated at room temperature for 1.25-2 hours. Plates were washed and biotinylated anti-human IFNγ antibody (4S.B3) was diluted in 1% BSA in PBS (1 μg/mL) and added to plates for 1 hour at room temperature. After washing plates, Strep-Avidin HRP (BD Pharmingen) was diluted 1:1000 in PBST and added to wells for 30 minutes at room temperature. Finally, plates were washed and Sigma® Fast OPD was added for 15 minutes in the dark. 2M HCl was added to stop the reaction and plates were read for absorbance at 492 nm on a spectrophotometer.
HLA-DR Restriction and Promiscuity. To determine HLA-DR restriction of the T cell epitope HERp270-284, anti-HLA-DR mAb L243, HLA-DQ mAb 1a3 or HLA-DP mAb B7/21 (20-1.25 μg/mL) were cultured with T cell clone HER.23c21, peptide HERp270-284 and autologous EBV-LcL in cRPMI+10% FBS media. Supernatants were harvested after 48 hours and tested for IL-2 and IFNγ production. HERp270-284 was also tested for HLA-DR promiscuity using EBV-LcL lines purchased from the European Collection of Cell Cultures originating from the 12th International Histocompatibility Workshop (IHW) held in Strasbourg, France. […]

ALVTYNTDTFESMPN (HER-2/Neu peptide 270-284, HER500 peptide #63, HERp270-284, HER-2/Neu epitope 270-284, residues 3-17 of SEQ ID NO1) [Peptide 63]
response of HER500.23c21 measured by IFNγ or IL2 production [1]: responded to only one individual peptide
T cell response induced, regardless of the EBV-LCL line used ([2]; 1 ug/ml peptide): maximal T cell response
IFNγ production by HER500.23c21 (ELISA), peptide titration ([2]; all HERp270-284 concentrations above 250 ng/mL, each EBV LcL line): > 4000 pg/mL
lowest peptide concentration able to stimulate Her500.23c21 ([2]; allele DRB1*0401): 10 ng/mL
peptide concentration below which allele was unable to stimulate Her500.23c21 ([2]; allele DRB1*1103): ≥ 250 ng/mL
number of HLA-DRB1* alleles for which the epitope is promiscuous (presented to HER500.23c21) ([2]; panel of 25 EBV LcL lines homozygous for different HLA-DRB1* alleles, 13 DR serological families): at least 25
Antigen-specific IFNγ production by HER500.23c21 (ELISA) ([2]; peptide 1 μg/mL, all EBV-LcL lines, 48 hours, upper detection limit 4000 pg/mL): > 4000 pg/mL
